Legend:
[1] = target: Calcium/calmodulin-dependent protein kinase type II subunit beta (Homo sapiens) (UniProt Q13554); conditions: at 10 µM
[2] = target: Dual specificity tyrosine-phosphorylation-regulated kinase 1A (Homo sapiens, UniProt Q13627); experiment: Selectivity interaction (KinomeScan (DiscoverX)) EUB0000092b DYRK1A; conditions: at 10 µM
[3] = target: Tyrosine-protein kinase Lck (Homo sapiens, UniProt P06239); experiment: Selectivity interaction (KinomeScan (DiscoverX)) EUB0000655a LCK; conditions: at 10 µM
[4] = target: Mitogen-activated protein kinase 8 (Homo sapiens, UniProt P45983); experiment: Selectivity interaction (KinomeScan (DiscoverX)) EUB0001079a MAPK8; conditions: at 1 µM
[5] = target: T1, Serine/threonine-protein kinase greatwall (Homo sapiens) (UniProt Q96GX5); experiment: Selectivity interaction (Kinase panel (KiNativ target engagement assay in Jurkat cells)) EUB0001635a MASTL; type: cell-based; conditions: at 1 µM
T1 sequence (whole entry): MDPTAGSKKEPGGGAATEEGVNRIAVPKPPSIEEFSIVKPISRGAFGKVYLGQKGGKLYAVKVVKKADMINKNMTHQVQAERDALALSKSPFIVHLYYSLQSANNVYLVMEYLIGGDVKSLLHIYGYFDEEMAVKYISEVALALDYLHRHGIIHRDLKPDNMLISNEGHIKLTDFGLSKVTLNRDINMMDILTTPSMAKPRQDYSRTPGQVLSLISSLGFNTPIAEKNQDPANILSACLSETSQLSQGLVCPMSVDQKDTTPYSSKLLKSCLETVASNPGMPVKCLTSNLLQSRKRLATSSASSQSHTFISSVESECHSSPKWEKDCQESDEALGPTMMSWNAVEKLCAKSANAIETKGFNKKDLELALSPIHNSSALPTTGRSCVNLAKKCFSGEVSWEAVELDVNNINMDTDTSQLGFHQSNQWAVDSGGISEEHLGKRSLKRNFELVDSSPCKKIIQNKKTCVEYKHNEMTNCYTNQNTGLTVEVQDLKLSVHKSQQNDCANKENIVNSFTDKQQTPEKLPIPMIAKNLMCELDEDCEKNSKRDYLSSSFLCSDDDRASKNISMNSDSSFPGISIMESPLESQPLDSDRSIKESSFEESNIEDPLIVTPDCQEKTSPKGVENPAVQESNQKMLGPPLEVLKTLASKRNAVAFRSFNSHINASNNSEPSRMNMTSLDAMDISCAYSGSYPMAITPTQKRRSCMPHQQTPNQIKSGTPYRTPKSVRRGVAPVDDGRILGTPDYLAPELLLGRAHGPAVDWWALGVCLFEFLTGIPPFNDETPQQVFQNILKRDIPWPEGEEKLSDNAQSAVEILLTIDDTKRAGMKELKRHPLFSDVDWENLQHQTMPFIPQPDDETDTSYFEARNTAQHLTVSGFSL

[6] = target: T2, Dual specificity mitogen-activated protein kinase kinase 6 (Homo sapiens) (UniProt P52564); experiment: Selectivity interaction (Millipore kinase profiler) EUB0000124b MAP2K6; conditions: at 10 µM
T2 sequence (whole entry): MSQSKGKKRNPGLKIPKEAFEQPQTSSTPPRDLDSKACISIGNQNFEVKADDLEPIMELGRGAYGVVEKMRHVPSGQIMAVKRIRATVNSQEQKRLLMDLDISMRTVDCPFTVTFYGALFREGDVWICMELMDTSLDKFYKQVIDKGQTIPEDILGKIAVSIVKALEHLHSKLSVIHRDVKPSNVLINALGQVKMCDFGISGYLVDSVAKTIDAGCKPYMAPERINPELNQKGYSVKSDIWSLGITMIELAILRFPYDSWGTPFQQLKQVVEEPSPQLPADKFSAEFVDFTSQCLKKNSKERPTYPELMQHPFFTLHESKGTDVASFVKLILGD

[7] = target: T3, Mitogen-activated protein kinase kinase kinase kinase 2 (Homo sapiens) (UniProt Q12851); conditions: at 10 µM
T3 sequence (whole entry): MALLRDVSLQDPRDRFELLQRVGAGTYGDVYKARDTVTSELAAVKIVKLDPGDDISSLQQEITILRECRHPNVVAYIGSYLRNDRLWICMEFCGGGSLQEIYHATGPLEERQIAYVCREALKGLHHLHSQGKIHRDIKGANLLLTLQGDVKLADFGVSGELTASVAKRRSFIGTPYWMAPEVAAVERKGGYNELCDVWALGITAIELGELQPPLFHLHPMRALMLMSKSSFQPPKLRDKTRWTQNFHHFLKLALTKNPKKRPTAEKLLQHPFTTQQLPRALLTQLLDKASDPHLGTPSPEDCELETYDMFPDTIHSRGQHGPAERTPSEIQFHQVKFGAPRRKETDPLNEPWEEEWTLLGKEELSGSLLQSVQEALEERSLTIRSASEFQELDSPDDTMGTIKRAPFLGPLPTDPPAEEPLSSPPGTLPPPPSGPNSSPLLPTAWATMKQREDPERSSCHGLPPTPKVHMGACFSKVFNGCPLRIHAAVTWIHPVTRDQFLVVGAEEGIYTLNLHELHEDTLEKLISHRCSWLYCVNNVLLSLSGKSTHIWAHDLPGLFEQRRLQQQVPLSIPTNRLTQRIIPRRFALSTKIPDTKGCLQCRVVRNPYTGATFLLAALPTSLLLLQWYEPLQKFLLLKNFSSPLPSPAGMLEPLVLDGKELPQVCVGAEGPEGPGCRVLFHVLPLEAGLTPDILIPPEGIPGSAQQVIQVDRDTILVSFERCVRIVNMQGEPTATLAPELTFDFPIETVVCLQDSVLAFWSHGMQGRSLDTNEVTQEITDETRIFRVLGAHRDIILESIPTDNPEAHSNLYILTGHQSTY

[8] = target: Tyrosine-protein kinase SYK (Homo sapiens, UniProt P43405); experiment: Selectivity interaction (ActivX KiNativ screen (kinase selectivity in THP-1 cell lysates)) EUB0000639a SYK; type: subcellular; conditions: lysate, at 0.04 µM
[9] = target: Cyclin-dependent kinase 7 (Homo sapiens, UniProt P50613); experiment: Selectivity interaction (ActivX KiNativ screen (kinase selectivity in THP-1 cell lysates)) EUB0000639a CDK7; type: subcellular; conditions: lysate, at 0.01 µM
[10] = target: Serine/threonine-protein kinase MARK2 (Homo sapiens) (UniProt Q7KZI7); experiment: Selectivity interaction (ActivX KiNativ screen (kinase selectivity in THP-1 cell lysates)) EUB0000639a MARK2; type: subcellular; conditions: lysate, at 0.01 µM
[11] = target: Serine/threonine-protein kinase 16 (Homo sapiens, UniProt O75716); experiment: Selectivity interaction (ActivX KiNativ screen (kinase selectivity in THP-1 cell lysates)) EUB0000639a STK16; type: subcellular; conditions: lysate, at 0.01 µM
[12] = target: Serine/threonine-protein kinase PLK1 (Homo sapiens, UniProt P53350); experiment: Selectivity interaction (KinomeScan (DiscoverX)) EUB0000695a PLK1; conditions: at 100 nM
[13] = target: Cyclin-dependent kinase 5 (Homo sapiens, UniProt Q00535); experiment: Selectivity interaction (KinomeScan (DiscoverX)) EUB0001619a CDK5; conditions: at 1 µM
[14] = target: Mitogen-activated protein kinase kinase kinase 20 (Homo sapiens) (UniProt Q9NYL2); experiment: Selectivity interaction (ActivX KiNativ screen (ex vivo kinase selectivity in human PBMCs)) EUB0001619a MAP3K20; type: cell-based; conditions: PBMC, at 1 µM
Sequence of Mitogen-activated protein kinase kinase kinase 20 (Homo sapiens) (Q9NYL2 2-800 limits assumed): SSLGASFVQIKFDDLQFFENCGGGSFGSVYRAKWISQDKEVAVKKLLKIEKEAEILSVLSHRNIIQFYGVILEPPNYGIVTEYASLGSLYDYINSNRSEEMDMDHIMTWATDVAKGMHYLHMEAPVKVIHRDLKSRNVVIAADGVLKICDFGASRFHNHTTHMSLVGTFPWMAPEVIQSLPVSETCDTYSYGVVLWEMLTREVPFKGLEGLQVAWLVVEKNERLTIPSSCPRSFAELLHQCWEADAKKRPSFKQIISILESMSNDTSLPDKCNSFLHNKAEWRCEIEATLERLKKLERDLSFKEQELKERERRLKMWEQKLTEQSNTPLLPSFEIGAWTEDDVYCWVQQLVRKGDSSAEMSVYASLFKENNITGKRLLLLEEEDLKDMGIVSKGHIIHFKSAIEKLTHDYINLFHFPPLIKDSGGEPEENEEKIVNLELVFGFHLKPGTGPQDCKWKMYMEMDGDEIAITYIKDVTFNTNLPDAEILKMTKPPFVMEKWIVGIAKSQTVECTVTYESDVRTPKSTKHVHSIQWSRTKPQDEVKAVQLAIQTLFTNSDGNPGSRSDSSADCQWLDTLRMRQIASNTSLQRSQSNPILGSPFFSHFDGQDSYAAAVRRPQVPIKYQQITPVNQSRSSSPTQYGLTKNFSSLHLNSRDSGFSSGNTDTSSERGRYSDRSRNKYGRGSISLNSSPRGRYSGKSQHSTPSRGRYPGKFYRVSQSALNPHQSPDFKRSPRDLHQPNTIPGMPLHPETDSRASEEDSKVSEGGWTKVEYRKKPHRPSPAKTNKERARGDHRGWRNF

Sequence of Serine/threonine-protein kinase MARK2 (Homo sapiens) (Q7KZI7 whole entry): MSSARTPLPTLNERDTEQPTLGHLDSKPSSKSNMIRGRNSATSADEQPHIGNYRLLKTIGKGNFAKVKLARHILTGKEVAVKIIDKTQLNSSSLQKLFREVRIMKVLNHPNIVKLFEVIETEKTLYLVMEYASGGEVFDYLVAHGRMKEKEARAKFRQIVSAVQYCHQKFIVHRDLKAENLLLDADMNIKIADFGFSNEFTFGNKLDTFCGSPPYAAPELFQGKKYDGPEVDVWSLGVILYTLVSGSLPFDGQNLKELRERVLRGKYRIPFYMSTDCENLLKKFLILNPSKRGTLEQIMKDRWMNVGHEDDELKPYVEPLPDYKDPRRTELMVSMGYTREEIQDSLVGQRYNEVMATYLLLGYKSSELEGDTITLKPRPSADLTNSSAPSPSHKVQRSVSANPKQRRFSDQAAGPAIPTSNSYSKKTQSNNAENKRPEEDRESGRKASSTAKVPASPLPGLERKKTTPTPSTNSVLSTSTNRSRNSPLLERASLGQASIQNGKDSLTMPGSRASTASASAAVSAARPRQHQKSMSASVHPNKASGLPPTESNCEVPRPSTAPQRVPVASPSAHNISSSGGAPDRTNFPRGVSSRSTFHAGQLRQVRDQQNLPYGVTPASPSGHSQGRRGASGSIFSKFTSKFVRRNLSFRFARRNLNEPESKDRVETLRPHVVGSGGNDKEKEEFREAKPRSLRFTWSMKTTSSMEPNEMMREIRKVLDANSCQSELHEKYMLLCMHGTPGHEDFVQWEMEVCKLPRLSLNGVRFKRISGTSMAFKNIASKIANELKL
Sequence of Cyclin-dependent kinase 5 (Q00535 whole entry, looked up): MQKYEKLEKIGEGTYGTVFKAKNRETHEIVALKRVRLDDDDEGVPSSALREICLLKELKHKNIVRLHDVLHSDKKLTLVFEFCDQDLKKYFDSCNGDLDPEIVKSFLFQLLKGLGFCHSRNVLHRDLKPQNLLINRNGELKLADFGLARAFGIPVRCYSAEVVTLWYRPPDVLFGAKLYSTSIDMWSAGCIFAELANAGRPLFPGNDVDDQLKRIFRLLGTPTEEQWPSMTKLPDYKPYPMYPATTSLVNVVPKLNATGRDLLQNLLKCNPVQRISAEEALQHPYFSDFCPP
Sequence of Tyrosine-protein kinase Lck (P06239 2-509 limits assumed): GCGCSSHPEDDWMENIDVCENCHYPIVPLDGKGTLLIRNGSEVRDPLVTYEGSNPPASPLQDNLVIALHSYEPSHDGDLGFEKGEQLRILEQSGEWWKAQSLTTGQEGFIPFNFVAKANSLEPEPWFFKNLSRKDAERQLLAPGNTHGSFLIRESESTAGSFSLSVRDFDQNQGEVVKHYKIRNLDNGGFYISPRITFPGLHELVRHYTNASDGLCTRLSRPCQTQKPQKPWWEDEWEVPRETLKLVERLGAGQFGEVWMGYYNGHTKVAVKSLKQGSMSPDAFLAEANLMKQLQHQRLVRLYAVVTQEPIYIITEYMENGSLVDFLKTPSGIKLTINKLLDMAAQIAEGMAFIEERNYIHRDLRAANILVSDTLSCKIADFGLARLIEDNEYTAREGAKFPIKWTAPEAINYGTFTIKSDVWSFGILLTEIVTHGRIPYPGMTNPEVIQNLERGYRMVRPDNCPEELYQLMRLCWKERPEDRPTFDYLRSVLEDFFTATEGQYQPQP
Sequence of Calcium/calmodulin-dependent protein kinase type II subunit beta (Homo sapiens) (Q13554 whole entry): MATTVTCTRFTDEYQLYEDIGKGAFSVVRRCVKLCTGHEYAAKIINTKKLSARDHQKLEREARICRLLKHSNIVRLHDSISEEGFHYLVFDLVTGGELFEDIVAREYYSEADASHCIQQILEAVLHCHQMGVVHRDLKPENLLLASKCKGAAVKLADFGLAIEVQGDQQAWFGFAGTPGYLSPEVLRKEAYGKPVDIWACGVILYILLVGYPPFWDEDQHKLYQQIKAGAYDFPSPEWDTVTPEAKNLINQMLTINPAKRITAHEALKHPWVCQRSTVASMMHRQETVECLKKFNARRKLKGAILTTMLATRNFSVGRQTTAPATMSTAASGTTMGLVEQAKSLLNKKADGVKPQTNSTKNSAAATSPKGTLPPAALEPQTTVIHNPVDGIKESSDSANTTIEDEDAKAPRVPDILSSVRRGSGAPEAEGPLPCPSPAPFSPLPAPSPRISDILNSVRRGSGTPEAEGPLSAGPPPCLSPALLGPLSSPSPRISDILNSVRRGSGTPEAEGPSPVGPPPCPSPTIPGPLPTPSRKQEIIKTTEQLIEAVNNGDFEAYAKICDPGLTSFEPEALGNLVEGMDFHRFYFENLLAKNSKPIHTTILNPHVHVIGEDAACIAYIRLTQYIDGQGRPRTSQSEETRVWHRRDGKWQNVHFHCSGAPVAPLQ
Sequence of Serine/threonine-protein kinase PLK1 (P53350 whole entry): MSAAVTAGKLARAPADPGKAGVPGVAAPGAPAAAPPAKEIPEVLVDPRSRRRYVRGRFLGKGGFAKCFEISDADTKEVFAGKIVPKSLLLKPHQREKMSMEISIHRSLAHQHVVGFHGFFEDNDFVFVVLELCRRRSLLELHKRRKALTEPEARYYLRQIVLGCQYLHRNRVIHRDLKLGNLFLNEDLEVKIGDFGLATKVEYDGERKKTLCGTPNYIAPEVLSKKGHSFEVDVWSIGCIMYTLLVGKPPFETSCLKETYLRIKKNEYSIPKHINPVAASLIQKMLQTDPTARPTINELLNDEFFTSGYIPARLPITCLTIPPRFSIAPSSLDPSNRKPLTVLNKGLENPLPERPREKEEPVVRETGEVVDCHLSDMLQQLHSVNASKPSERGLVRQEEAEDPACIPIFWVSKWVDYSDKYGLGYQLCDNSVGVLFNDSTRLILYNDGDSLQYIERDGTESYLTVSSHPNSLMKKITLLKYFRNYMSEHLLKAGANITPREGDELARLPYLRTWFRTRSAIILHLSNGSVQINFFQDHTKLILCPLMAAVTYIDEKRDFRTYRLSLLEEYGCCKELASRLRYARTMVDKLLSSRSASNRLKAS
Sequence of Serine/threonine-protein kinase 16 (O75716 whole entry): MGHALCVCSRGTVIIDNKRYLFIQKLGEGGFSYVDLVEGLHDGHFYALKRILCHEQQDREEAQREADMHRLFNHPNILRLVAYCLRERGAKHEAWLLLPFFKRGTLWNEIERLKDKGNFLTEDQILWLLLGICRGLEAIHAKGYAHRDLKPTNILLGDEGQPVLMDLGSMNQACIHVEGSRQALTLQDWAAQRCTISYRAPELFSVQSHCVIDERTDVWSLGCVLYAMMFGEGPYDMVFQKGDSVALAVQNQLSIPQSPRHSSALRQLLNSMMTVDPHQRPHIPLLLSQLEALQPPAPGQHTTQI
Sequence of Mitogen-activated protein kinase 8 (P45983 whole entry): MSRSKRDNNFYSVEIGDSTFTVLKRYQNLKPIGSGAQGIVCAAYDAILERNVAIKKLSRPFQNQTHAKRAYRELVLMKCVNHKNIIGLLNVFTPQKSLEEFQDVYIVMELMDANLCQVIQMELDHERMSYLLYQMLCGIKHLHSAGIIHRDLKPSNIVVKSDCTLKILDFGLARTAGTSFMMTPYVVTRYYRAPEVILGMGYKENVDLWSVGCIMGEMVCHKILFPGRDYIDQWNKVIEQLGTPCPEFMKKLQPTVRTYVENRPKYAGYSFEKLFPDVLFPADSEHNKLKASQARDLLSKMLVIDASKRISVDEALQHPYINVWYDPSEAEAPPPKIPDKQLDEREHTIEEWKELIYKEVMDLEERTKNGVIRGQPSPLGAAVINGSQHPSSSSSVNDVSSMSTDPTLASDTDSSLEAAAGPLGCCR
Sequence of Cyclin-dependent kinase 7 (P50613 whole entry): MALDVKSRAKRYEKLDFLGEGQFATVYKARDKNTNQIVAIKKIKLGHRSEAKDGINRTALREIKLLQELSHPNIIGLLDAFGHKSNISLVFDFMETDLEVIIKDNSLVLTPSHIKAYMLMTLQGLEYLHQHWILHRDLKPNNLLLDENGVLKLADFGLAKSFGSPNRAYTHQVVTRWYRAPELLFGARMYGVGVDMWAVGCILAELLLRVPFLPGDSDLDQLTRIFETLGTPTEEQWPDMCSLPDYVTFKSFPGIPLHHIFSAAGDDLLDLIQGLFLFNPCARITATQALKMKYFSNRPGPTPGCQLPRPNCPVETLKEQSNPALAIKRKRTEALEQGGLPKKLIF

**Q.** How did the % of control [1] turn out when CCN(CC)CCCCNc1ncc2cc(-c3cc(OC)cc(OC)c3)c(NC(=O)NC(C)(C)C)nc2n1 was run?
**A.** 100%

**Q.** With CCC(=O)N1CCN(c2ccc(-n3c(=O)ccc4cnc5ccc(-c6cnc7ccccc7c6)cc5c43)cc2C(F)(F)F)CC1 as the compound, how does the % of control [2] read?
**A.** 71%

**Q.** For CN(C)CCOc1ccc(-c2nc(-c3ccncc3)c(-c3ccc4c(c3)CC/C4=N\O)[nH]2)cc1, which % of control [3] is on record?
**A.** 29%

**Q.** For Nc1cnc(N2CCc3cc(S(=O)(=O)Nc4c(F)cc(Cl)cc4F)cc(N4CCCC4=O)c32)nc1 [TP-020n], which % of control [4] is on record?
**A.** 78%

**Q.** For C=CC(=O)Nc1ccc(C(=O)Nc2[nH]nc3c2CN(C(=O)N[C@H](CN(C)C)c2ccccc2)C3(C)C)cc1, which % of engagement [5] is on record?
**A.** 6.7%

**Q.** For CC(=O)Nc1cccc(-n2c(=O)n(C3CC3)c(=O)c3c(Nc4ccc(I)cc4F)n(C)c(=O)c(C)c32)c1, which % of control [6] is on record?
**A.** 70%

**Q.** For Cc1cc([C@@H](C)Nc2ccccc2C(=O)O)c2nc(N3CCOCC3)cc(=O)n2c1 [AZD-6482], which % of control [7] is on record?
**A.** 56%

**Q.** What does the source list for CC[C@@H]1[C@H](F)C(=O)N[C@@H]1COc1nccc2cc(C(N)=O)c(OC)cc12 [ZIMLOVISERTIB]?
**A.** % of inhibition [8]: 5.5%; % of inhibition [9]: -3%; % of inhibition [10]: 2.3%; % of inhibition [11]: 21.2%

**Q.** Cc1cc(F)c(C(=O)Nc2cccc(-c3nncn3C(C)C)n2)cc1-n1cnc(C2CC2)c1 was tested. Which % of control [12] did it give?
**A.** 100%

**Q.** For N#Cc1cccc(-c2c[nH]c3ncnc(N4CCOCC4)c23)c1, which % of control [13] is on record?
**A.** 92%

**Q.** And the % of inhibition [14]?
**A.** -42%
